Assay results from paper PMC2361651 (British Journal of Cancer, 2005).
Where two headings read alike, the source gives them in different places.

What was measured:
[1] = cited from earlier work
[2] = Phase I safety and tolerability, twice weekly intravenous infusion
[3] = Plasma pharmacokinetics of SU5416 and metabolites in Phase I patients (HPLC UV); assay type: in vivo, human; settings: for Vd / AUC(0-t) / clearance / half-life / Cmax / AUC: human; for half-life: read-out: T1/2λz (converted); for Cmax: read-out: Cmax
Method: Samples were taken prior to treatment infusion, 15 min into the infusion, at completion of the infusion and then at 5, 10, 20, 30, 45, 60, 120 and 240 min following the infusion. […] At the designated times, 4.0 ml of blood were collected into a lithium heparin tube, gently inverted and placed on ice to maintain the sample at 2–8°C. All samples were immediately centrifuged at 6000 r.p.m. at 4°C for 10 min, the supernatant divided between two 1.5 ml Nalgene cryovials and snap frozen in liquid nitrogen. Separated plasma samples were subsequently stored at −70°C until analysis.
Pharmacokinetic analysis was performed using a fully validated HPLC UV method ([Stopeck et al, 2002]). Plasma samples, standards (25–2000 ng ml^−1) and quality controls spiked with internal standards were extracted with acetonitrile. Following centrifugation, drying and reconstitution in 200 μl mobile phase, 20 μl were analysed by HPLC UV. Chromatography was carried out using a C18 analytical column, with a gradient mobile phase containing acetonitrile and 10 mM ammonium formate at pH 2.6. The flow rate was 0.8 ml min^−1 and the run-time 21 min. Detection was via UV absorption at a wavelength of 440 nm. The accuracy of the assay, reflected in relative error of measured concentration to theoretical (prepared) concentrations, was between 0.9 and 5.6% for all quality control samples.
Pharmacokinetic parameters were evaluated using WinNonLin Software®.

[4] = in vivo, iv, 145 mg m^−2, individual patients, twice weekly i.v. infusion, dose 145 mg m^−2, cycle 1inj8
[5] = in vivo, iv, 145 mg m^−2, individual patients, twice weekly i.v. infusion, dose 145 mg m^−2, cycle 2inj8
[6] = in vivo, iv, individual patients, twice weekly i.v. infusion, dose 145 → 190 mg m^−2, cycle 2inj1
[7] = in vivo, iv, individual patients, twice weekly i.v. infusion, dose 145 → 190 mg m^−2, cycle 2inj8
[8] = in vivo, iv, individual patients, twice weekly i.v. infusion, dose 145 → 190 mg m^−2, cycle 3inj2
[9] = plasma, iv, 48 mg m^−2, individual patients, twice weekly i.v. infusion, dose 48 mg m^−2, cycle 1inj2
[10] = plasma, iv, 48 mg m^−2, individual patients, twice weekly i.v. infusion, dose 48 mg m^−2, cycle 1inj8
[11] = plasma, iv, 48 mg m^−2, individual patients, twice weekly i.v. infusion, dose 48 mg m^−2, cycle 2inj8
[12] = plasma, iv, 65 mg m^−2, individual patients, twice weekly i.v. infusion, dose 65 mg m^−2, cycle 1inj2
[13] = plasma, iv, 65 mg m^−2, individual patients, twice weekly i.v. infusion, dose 65 mg m^−2, cycle 1inj3
[14] = plasma, iv, 65 mg m^−2, individual patients, twice weekly i.v. infusion, dose 65 mg m^−2, cycle 1inj8

## Cc1cc(C)c(/C=C2\C(=O)Nc3ccccc32)[nH]1 [SU5416, Z-3-[(2,4-dimethylpyrrol-5-yl)methylidenyl]-2-indolinone]
[1]; same schedule, sampling from day 1, ref Cropp et al, 1999, Rosen et al
  degree of induction of SU5416 metabolism: 69%
[1]; same twice weekly schedule, ref Rosen et al, 1999
  dose at which DLT (projectile vomiting and severe headache) was reported: 190 mg m^−2
[2]; dose expansion cohort
  pain or burning discomfort in tumour-related sites shortly after infusion, patients: three
[2]; therapy for 6 weeks or more, reversible over several months
  dysphonia, patients: Two
[2]; thrombosis of the inferior vena cava and a pulmonary embolism, differing dose levels
  Venous thrombotic events, patients: two
[2]; twice weekly intravenous infusion
  recommended dose for future study: 145 mg m^−2
[2]; twice weekly intravenous infusion, 48 to 190 mg m^−2
  maximum-tolerated dose: not identified
[3]; day 4 vs day 25, five of the nine patients dosed at the same level on both days
  average increase in drug clearance: 22%
[3]; dose range 48–145 mg m^−2, initial assessment and day 25
  dose linearity of kinetics: linear kinetics
[3]; in vivo, iv, 48 mg m^−2, individual patients, twice weekly i.v. infusion, dose 48 mg m^−2, cycle 1inj2, read-out: Vz (observed)
  Vd: 142 L
[3]; in vivo, iv, 48 mg m^−2, individual patients, twice weekly i.v. infusion, dose 48 mg m^−2, cycle 1inj8
  AUC(0-t): 816 ng·h/mL
[3]; in vivo, iv, 85 mg m^−2, individual patients, twice weekly i.v. infusion, dose 85 mg m^−2, cycle 1inj8, read-out: CL (observed) (converted)
  clearance: 2520 mL/min
[3]; in vivo, iv, 145 mg m^−2, individual patients, twice weekly i.v. infusion, dose 145 mg m^−2, cycle 1inj2
  half-life: 52.2 min
[3]; [4]
  AUC(0-t): 4430 ng·h/mL
  Cmax: 3920 ng/mL
  half-life: 34.2 min
[3]; [5]
  AUC(0-t): 1780 ng·h/mL
  Cmax: 1340 ng/mL
  half-life: 43.2 min
[3]; in vivo, iv, 145 mg m^−2, individual patients, twice weekly i.v. infusion, dose 145 mg m^−2, cycle 2inj8, read-out: CL (observed) (converted)
  clearance: 3730 mL/min
[3]; in vivo, iv, 145 mg m^−2, individual patients, twice weekly i.v. infusion, dose 145 mg m^−2, cycle 2inj8, read-out: Vz (observed)
  Vd: 233 L
[3]; [6]
  AUC(0-t): 6450 ng·h/mL
  Cmax: 4000 ng/mL
  half-life: 46.2 min
[3]; in vivo, iv, individual patients, twice weekly i.v. infusion, dose 145 → 190 mg m^−2, cycle 2inj1, read-out: CL (observed) (converted)
  clearance: 817 mL/min
[3]; in vivo, iv, individual patients, twice weekly i.v. infusion, dose 145 → 190 mg m^−2, cycle 2inj1, read-out: Vz (observed)
  Vd: 54 L
[3]; [7]
  AUC(0-t): 5040 ng·h/mL
  Cmax: 3340 ng/mL
  half-life: 43.2 min
[3]; in vivo, iv, individual patients, twice weekly i.v. infusion, dose 145 → 190 mg m^−2, cycle 2inj8, read-out: CL (observed) (converted)
  clearance: 1320 mL/min
[3]; in vivo, iv, individual patients, twice weekly i.v. infusion, dose 145 → 190 mg m^−2, cycle 2inj8, read-out: Vz (observed)
  Vd: 82 L
[3]; [8]
  AUC(0-t): 7170 ng·h/mL
  Cmax: 6520 ng/mL
  half-life: 45 min
[3]; in vivo, iv, individual patients, twice weekly i.v. infusion, dose 145 → 190 mg m^−2, cycle 3inj2, read-out: CL (observed) (converted)
  clearance: 733 mL/min
[3]; in vivo, iv, individual patients, twice weekly i.v. infusion, dose 145 → 190 mg m^−2, cycle 3inj2, read-out: Vz (observed)
  Vd: 48 L
[3]; in vivo, range over the 25 evaluable patients, read-out: Plasma clearance (CL)
  clearance: 767 to 3580 mL/min
[3]; in vivo, range over the 25 evaluable patients, read-out: volume of distribution (Vd)
  Vd: 39 to 215 L
[3]; in vivo, at 145 mg m^−2
  AUC: 3720 ± 930 ng·h/mL
[3]; in vivo, at 190 mg m^−2 in patients escalated from 145 mg m^−2 after 2 weeks
  AUC: 3610 ± 183 ng·h/mL
[3]; [9]
  Cmax: 1740 ng/mL
  half-life: 32.4 min
[3]; plasma, iv, 48 mg m^−2, individual patients, twice weekly i.v. infusion, dose 48 mg m^−2, cycle 1inj2, read-out: Vz (observed)
  Vd: 69 L
[3]; [10]
  AUC(0-t): 630 ng·h/mL
  Cmax: 2060 ng/mL
  half-life: 36.6 min
[3]; plasma, iv, 48 mg m^−2, individual patients, twice weekly i.v. infusion, dose 48 mg m^−2, cycle 1inj8, read-out: CL (observed) (converted)
  clearance: 2080 mL/min
[3]; plasma, iv, 48 mg m^−2, individual patients, twice weekly i.v. infusion, dose 48 mg m^−2, cycle 1inj8, read-out: Vz (observed)
  Vd: 109 L
[3]; [11]
  AUC(0-t): 498 ng·h/mL
  Cmax: 1630 ng/mL
  half-life: 34.2 min
[3]; plasma, iv, 48 mg m^−2, individual patients, twice weekly i.v. infusion, dose 48 mg m^−2, cycle 2inj8, read-out: CL (observed) (converted)
  clearance: 2630 mL/min
[3]; plasma, iv, 48 mg m^−2, individual patients, twice weekly i.v. infusion, dose 48 mg m^−2, cycle 2inj8, read-out: Vz (observed)
  Vd: 131 L
[3]; [12]
  AUC(0-t): 1500 ng·h/mL
  Cmax: 4370 ng/mL
  half-life: 27 min
[3]; plasma, iv, 65 mg m^−2, individual patients, twice weekly i.v. infusion, dose 65 mg m^−2, cycle 1inj2, read-out: CL (observed) (converted)
  clearance: 1070 mL/min
[3]; [13]
  AUC(0-t): 566 ng·h/mL
  Cmax: 2070 ng/mL
  half-life: 12 min
[3]; plasma, iv, 65 mg m^−2, individual patients, twice weekly i.v. infusion, dose 65 mg m^−2, cycle 1inj3, read-out: CL (observed) (converted)
  clearance: 3170 mL/min
[3]; plasma, iv, 65 mg m^−2, individual patients, twice weekly i.v. infusion, dose 65 mg m^−2, cycle 1inj3, read-out: Vz (observed)
  Vd: 55 L
[3]; [14]
  AUC(0-t): 1310 ng·h/mL
  Cmax: 4100 ng/mL
  half-life: 43.8 min
[3]; plasma, iv, 65 mg m^−2, individual patients, twice weekly i.v. infusion, dose 65 mg m^−2, cycle 1inj8, read-out: CL (observed) (converted)
  clearance: 1230 mL/min
[3]; plasma, iv, 65 mg m^−2, individual patients, twice weekly i.v. infusion, dose 65 mg m^−2, cycle 1inj8, read-out: Vz (observed)
  Vd: 78 L
[3]; plasma, iv, 85 mg m^−2, individual patients, twice weekly i.v. infusion, dose 85 mg m^−2, cycle 1inj2
  AUC(0-t): 1810 ng·h/mL
